These results are taken from the NIST ThermoML archive (doi:10.1016/j.tca.2012.02.002).

Numbers after ± are expanded uncertainties.

The conditions of the data set: 293 K; 101.33 kPa; Crystal; X-ray diffraction.

Take `O=P([O-])([O-])[O-].[Er+3]` [erbium phosphate]: the molar volume came to 4.271e-05 ± 5.1e-07 m3/mol.
